Assay results: PMC4618480

Tests used:
[1] = RCM, 10 mol% Ru catalyst 2 (Grubbs II), quenched with ethyl vinyl ether; details: 14-membered ring, DCE, 2.0 mM, 40.0 °C, 4.0 h
[2] = RCM, 10 mol% Ru catalyst 1 (Grubbs I), quenched with ethyl vinyl ether; details: 14-membered ring, DCE, 2.0 mM, 40.0 °C, 4.0 h
[3] = RCM, 10 mol% Ru catalyst 5 (o-tolyl NHC Hoveyda type), quenched with ethyl vinyl ether; details: 14-membered ring, DCE, 2.0 mM, 40.0 °C, 4.0 h
[4] = RCM, 10 mol% Ru catalyst 4 (nitro-Hoveyda/Grela), quenched with ethyl vinyl ether; details: 14-membered ring, DCE, 2.0 mM, 40.0 °C, 4.0 h
[5] = RCM, 10 mol% Ru catalyst 3 (Hoveyda-Grubbs II), quenched with ethyl vinyl ether; details: 14-membered ring, DCE, 2.0 mM, 40.0 °C, 4.0 h
[6] = RCM, 10 mol% Z-selective cyclometalated Ru catalyst 7 (Dipp), quenched with ethyl vinyl ether; details: 14-membered ring, DCE, 2.0 mM, 40.0 °C, 4.0 h
[7] = RCM, 10 mol% Z-selective cyclometalated Ru catalyst 6 (Mes), quenched with ethyl vinyl ether; details: 14-membered ring, DCE, 2.0 mM, 40.0 °C, 4.0 h
[8] = on-resin RCM stapling (Rink amide MBHA), 16 mol% Ru catalyst 1 (Grubbs I), then TFA/TIS/H2O cleavage; details: the molecule shown is the open-chain precursor, 21-membered ring, DCE, 40.0 °C
[9] = on-resin RCM stapling (Rink amide MBHA), 16 mol% Ru catalyst 4 (nitro-Hoveyda/Grela), then TFA/TIS/H2O cleavage; details: the molecule shown is the open-chain precursor, DCE, 40.0 °C
[10] = on-resin RCM stapling (Rink amide MBHA), 16 mol% Ru catalyst 3 (Hoveyda-Grubbs II), then TFA/TIS/H2O cleavage; details: the molecule shown is the open-chain precursor, DCE, 40.0 °C
[11] = on-resin RCM stapling (Rink amide MBHA), 16 mol% Ru catalyst 2 (Grubbs II), then TFA/TIS/H2O cleavage; details: the molecule shown is the open-chain precursor, DCE, 40.0 °C
[12] = on-resin RCM stapling (Rink amide MBHA), 16 mol% Z-selective Ru catalyst 6 (Mes), then TFA/TIS/H2O cleavage; details: the molecule shown is the open-chain precursor, DCE, 40.0 °C
[13] = on-resin RCM stapling (Rink amide MBHA), 16 mol% Z-selective Ru catalyst 7 (Dipp), then TFA/TIS/H2O cleavage; details: the molecule shown is the open-chain precursor, DCE, 40.0 °C
[14] = on-resin RCM stapling (Rink amide MBHA), 16 mol% Ru catalyst 5 (o-tolyl NHC Hoveyda type), then TFA/TIS/H2O cleavage; details: the molecule shown is the open-chain precursor, DCE, 40.0 °C
[15] = from C=CC[C@H](NC(=O)OC(C)(C)C)C(=O)N[C@@H](Cc1cn(S(=O)(=O)c2ccc(C)cc2)cn1)C(=O)NCC(=O)N[C@@H](CC=C)C(=O)OC
[16] = from C=CC[C@H](NC(=O)OC(C)(C)C)C(=O)N[C@@H](CC(C)C)C(=O)N[C@@H](CC(C)C)C(=O)N[C@@H](CC=C)C(=O)OCc1ccccc1
[17] = from C=CC[C@H](NC(=O)CNC(=O)[C@@H]1CCCN1C(=O)[C@H](CC=C)NC(=O)OC(C)(C)C)C(=O)OC

Compound COC(=O)[C@@H]1CC=CC[C@H](NC(=O)OC(C)(C)C)C(=O)N[C@@H](Cc2cn(S(=O)(=O)c3ccc(C)cc3)cn2)C(=O)NCC(=O)N1 [Boc-allylGly-His(Tos)-Gly-allylGly-OMe] has a ring closure, isolated yield [1, 15] of 18%, a ring closure, isolated yield [2, 15] of 14% and a ring closure, isolated yield [3, 15] of less than 5%. For the same compound, the ring closure, isolated yield [4, 15] was 12% and the ring closure, isolated yield [5, 15] was less than 10%.
CC(C)C[C@@H]1NC(=O)[C@@H](NC(=O)OC(C)(C)C)CC=CC[C@@H](C(=O)OCc2ccccc2)NC(=O)[C@H](CC(C)C)NC1=O [Boc-allylGly-Leu-Leu-allylGly-OBn] showed a ring closure, isolated yield [1, 16] of 74%, a ring closure, isolated yield [2, 16] of 70% and a ring closure, isolated yield [3, 16] of 39%. It also gave a ring closure, isolated yield [6, 16] of 30%, a ring closure, isolated yield [4, 16] of 64% and a ring closure, isolated yield [7, 16] of 32%. The ring closure, isolated yield [5, 16] was 61%.
In the case of COC(=O)[C@@H]1CC=CC[C@H](NC(=O)OC(C)(C)C)C(=O)N2CCC[C@H]2C(=O)NCC(=O)N1 [Boc-allylGly-Pro-Gly-allylGly-OMe], the ring closure, isolated yield [1, 17] is reported as 48%, the ring closure, isolated yield [2, 17] is reported as 37% and the ring closure, isolated yield [3, 17] is reported as 20%. For the same compound, the ring closure, isolated yield [6, 17] was 18%, the ring closure, isolated yield [4, 17] was 36% and the ring closure, isolated yield [7, 17] was 17%. For the same compound, the ring closure, isolated yield [5, 17] was 41%.
For C=CCCC[C@](C)(NC(=O)[C@H](CC(C)C)NC(=O)[C@H](CC(C)C)NC(=O)[C@H](CC(=O)O)NC(=O)[C@](C)(CCCC=C)NC(=O)[C@H](Cc1ccccc1)NC(=O)[C@@H](NC(=O)[C@@H](NC(=O)OCC1c2ccccc2-c2ccccc21)[C@@H](C)CC)[C@@H](C)O)C(=O)N[C@@H](Cc1ccc(O)cc1)C(=O)N[C@@H](Cc1ccc(O)cc1)C(=O)NCC(=O)N1CCC[C@H]1C(N)=O [Fmoc-Ile-Thr-Phe-S5-Asp-Leu-Leu-S5-Tyr-Tyr-Gly-Pro-NH-resin], the ring closure, conversion by HPLC [8] was 90%.
In the case of “Fmoc-Ala-Glu-Leu-Glu-Arg-S5-His-Thr-Phe-S5-Leu-His-Gln-Arg-NH-resin”, the ring closure, conversion by HPLC ([9]; 21-membered ring) is reported as 92%, the ring closure, conversion by HPLC ([10]; 21-membered ring) is reported as 88% and the ring closure, conversion by HPLC ([11]; 21-membered ring) is reported as 85%. It also gave a ring closure, conversion by HPLC ([12]; 21-membered ring) of 80% and a ring closure, conversion by HPLC ([13]; 21-membered ring) of 70%.
“Fmoc-Gln-Ser-Gln-Gln-Thr-Phe-R8-Asn-Leu-Trp-Arg-Leu-Leu-S5-Gln-Asn-NH-resin” gave a ring closure, conversion by HPLC ([9]; 33-membered ring) of 85%, a ring closure, conversion by HPLC ([14]; 33-membered ring) of 80% and a ring closure, conversion by HPLC ([11]; 33-membered ring) of 90%. It also gave a ring closure, conversion by HPLC ([12]; 33-membered ring) of 75% and a ring closure, conversion by HPLC ([13]; 33-membered ring) of 70%.
With “Fmoc-Ile-Thr-Phe-S5-Asp-Leu-Leu-S5-Tyr-Tyr-Gly-Pro-NH-resin” the ring closure, conversion by HPLC ([9]; 21-membered ring) was 80%, the ring closure, conversion by HPLC ([10]; 21-membered ring) was 81% and the ring closure, conversion by HPLC ([14]; 21-membered ring) was 70%. The ring closure, conversion by HPLC ([11]; 21-membered ring) was 90% and the ring closure, conversion by HPLC ([13]; 21-membered ring) was 75%.
“Fmoc-Val-Asn-R8-Lys-Lys-Ile-Leu-Gly-Lys-S5-Ile-Lys-Val-Val-Lys-NH-resin” showed a ring closure, conversion by HPLC ([9]; 33-membered ring) of 85%, a ring closure, conversion by HPLC ([10]; 33-membered ring) of 80% and a ring closure, conversion by HPLC ([14]; 33-membered ring) of 60%. For the same compound, the ring closure, conversion by HPLC ([11]; 33-membered ring) was 94%, the ring closure, conversion by HPLC ([12]; 33-membered ring) was 70% and the ring closure, conversion by HPLC ([13]; 33-membered ring) was 55%.
